The source of these data is US6034066A, “Cysteine protease inhibitors for use in treatment of IGE mediated allergic diseases” (Peptide Therapeutics Limited, priority 1995, dated 2000).

For this test, the target named is T1, Der p I (Dermatophagoides pteronyssinus, UniProt P08176).
T1 construct: tissue SmithKline-Beecham (crude mite extract); host or cells: house dust mite extract, purified on immobilised anti-Der p I antibody 4C1
T1 sequence (P08176 99-320): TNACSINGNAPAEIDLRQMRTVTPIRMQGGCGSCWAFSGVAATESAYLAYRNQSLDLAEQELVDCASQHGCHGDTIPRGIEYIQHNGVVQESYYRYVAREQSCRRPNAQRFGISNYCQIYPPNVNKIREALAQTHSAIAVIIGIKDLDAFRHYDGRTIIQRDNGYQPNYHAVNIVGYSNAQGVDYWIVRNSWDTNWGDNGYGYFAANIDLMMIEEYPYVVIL
Nature of the test: Cleavage of membrane CD23 on RPMI 8866 B cells by Der p I, FACS with FITC anti-CD23 (Bu38). The test is classed as cell-based. The conditions noted are these: Der p I pre-incubated 30 min at 37° C. with inhibitor, then added to RPMI 8866 cells; FIG. 1(c). The text has this:
We have affinity purified Der p I from dust mite extract and tested its ability to proteolytically cleave CD23 expressed on cultured RPMI 8866 B cells, using FITC labelled monoclonal anti-human CD23 (Bu38). […] The proteolytic activity of Der p I was inhibited by E64 (a cysteine protease inhibitor), but not by alpha-1-antitrypsin (a serine protease inhibitor), thereby confirming the cysteine protease nature of Der p I (FIG. 1c). […] A more detailed description of FIG. 1 is as follows:
Cells were analysed on a FACScan (Becton Dickinson, Oxford, UK) with a linear fluorescence setting of 660 volts. The fluorescence (FL1) profile versus forward scatter (FSC) was used to monitor the cells, the amplification scale was altered according to the level of fluorescence. For each sample 4000 events were collected and then analysed using the flowMATE programme (DAKO, High Wycombe, UK). Data presented are representative of 3 replicate experiments, each point in a to c represents the mean of duplicate determinations, FIG. 1(a). Dose and cysteine dependency of CD23 cleavage by Der p I (for method of purification see FIG. 1(d) below). Der p I was pre-incubated (15 min at 37° C.) with or without 5 mM cysteine and added to 2-3×10^5 RPMI 8866 cells in a total volume of […] RPMI 1640+10 mM HEPES. […]

On to `CC(C)C[C@H](NC(=O)[C@H]1O[C@@H]1C(=O)O)C(=O)NCCCCN=C(N)N` (relative stereo) [Compound E64, L-trans-epoxysuccinyl-leucylamido (4-guanidino) butane, reference compound], for which the “inhibition of membrane CD23 cleavage by Der p I” value is “completely inhibits”.
Regarding “alpha-1-antitrypsin: a naturally occurring human serine protease inhibitor”, the “inhibition of membrane CD23 cleavage by Der p I” value is “no such inhibitory effect”.
